Measured values from ChEMBL document CHEMBL1142799, “Comparison of different heterocyclic scaffolds as substrate analog PDE5 inhibitors” (Bioorg Med Chem Lett, 2005).

What was measured:
[1] = molecular target: cGMP-specific 3',5'-cyclic phosphodiesterase (Homo sapiens, UniProt O76074)
Description: Inhibition of phosphodiesterase 5

Phosphodiesterase 1 = Phosphodiesterase 1 (Homo sapiens, UniProt P54750+Q01064+Q14123); assay: Inhibition of phosphodiesterase 1; format: protein assay

Structure (SMILES) | IC50 [1] [nM] | IC50 (Phosphodiesterase 1) [nM]
CCCc1nc(C)n2c(O)nc(-c3ccccc3OCC)nc12 | 40 | 200
CCOc1ccc(S(=O)(=O)N2CCN(C)CC2)cc1-c1nc2c(c(CC)nn2C2CCCC2)c(=O)[nH]1 | 40 | > 1000
CCOc1ccccc1-c1nc(O)c2ncn(C3CCC3)c2n1 | 100 | 1000
CCCn1nc(C)c2c(=O)[nH]c(-c3ccccc3OCC)nc21 | 1 | 
CCCc1n[nH]c2c(O)nc(-c3ccccc3OCC)nc12 | 50 | 
CCCn1nnc2c(O)nc(-c3ccccc3OCC)nc21 | 300 | 
CCCc1nc(C)c2c(=O)[nH]c(-c3ccccc3OCC)nn12 |  | 300
CCCc1nn(C)c2c(=O)[nH]c(-c3ccccc3OCC)nc12 |  | 790
CCOc1ccccc1-c1nc(O)c2c(C)nc(C3CCCC3)n2n1 | 5 | 30
CCOc1ccccc1-c1nc(O)c2nnc(C3CCCC3)n2n1 | 200 | 50
CCOc1ccccc1-c1nc(O)c2ncn(C3CCCC3)c2n1 | 50 | 500
CCCn1nc(CC)c2c(=O)[nH]c(-c3cc(S(=O)(=O)N4CCN(C)CC4)ccc3OCC)nc21 | 20 | > 1000
CCOc1ccccc1-c1nc(O)c2ncn(C3CC3)c2n1 | 300 | 1000
CCOc1ccccc1-c1nc(O)c2onc(C3CCCC3)c2n1 | 20 | 200
CCCn1cnc2c(O)nc(-c3ccccc3OCC)nc21 |  | 10
CCOc1ccccc1-c1nc(O)c2nnn(C3CCCC3)c2n1 | 500 | 800
CCOc1ccccc1-c1nc(O)n2c(C)nc(C3CCCC3)c2n1 | 20 | 40

Next, values leading:

IC50 [1] [nM] | IC50 (Phosphodiesterase 1) [nM] | Structure (SMILES)
10 | 1000 | CCOc1ccc(S(=O)(=O)N2CCN(CCO)CC2)cc1-c1nc(O)c2c(C)nc(C)n2n1
 | 300 | CCCc1nc(C)c2c(=O)[nH]c(-c3cc(S(=O)(=O)N4CCN(C)CC4)ccc3OCC)nn12
10 | 30 | CCOc1ccc(S(=O)(=O)N2CCN(CCO)CC2)cc1-c1nc(O)n2c(C)nc(C3CCCC3)c2n1
5 | 10 | CCOc1ccc(S(=O)(=O)N2CCN(CCO)CC2)cc1-c1nc(O)c2c(n1)c(C1CCCC1)nn2C
10 |  | CCCn1cnc2c(O)nc(-c3cc(S(=O)(=O)N4CCN(C)CC4)ccc3OCC)nc21
7 | > 1000 | CCOc1ccc(S(=O)(=O)N2CCN(C)CC2)cc1-c1nc(O)c2c(CC)nc(C3CCCC3)n2n1
8 | 1000 | CCCn1nc(C)c2c(=O)[nH]c(-c3cc(S(=O)(=O)N4CCN(C)CC4)ccc3OCC)nc21
1 | 10 | CCOc1ccc(S(=O)(=O)N2CCN(C)CC2)cc1-c1nc(O)c2c(C)nc(C3CCCC3)n2n1
200 | 1000 | CCOc1ccccc1-c1nc(O)c2c(C)nc(C)n2n1
1 | 10 | CCOc1ccc(S(=O)(=O)N2CCN(CCO)CC2)cc1-c1nc(O)c2c(C)nc(C3CCCC3)n2n1
8 | > 1000 | CCCc1nc(CC)c2c(O)nc(-c3cc(S(=O)(=O)N4CCN(C)CC4)ccc3OCC)nn12
50 | 50 | CCOc1ccc(S(=O)(=O)N2CCN(CCO)CC2)cc1-c1nc(O)c2nnc(C3CCCC3)n2n1
10 | 500 | CCCc1nc(C)n2c(O)nc(-c3cc(S(=O)(=O)N4CCN(C)CC4)ccc3OCC)nc12
10 | 30 | CCOc1ccc(S(=O)(=O)N2CCN(CCO)CC2)cc1-c1nc(O)c2onc(C3CCCC3)c2n1
5 | 20 | CCCc1nc(C)c2c(O)nc(-c3cc(S(=O)(=O)N4CCN(CCO)CC4)ccc3OCC)nn12
